Reference: patent publication US7285564B2, “Substituted 4-amino-1-(pyridylmethyl)piperidine and related compounds” (Theravance, Inc., priority 2002, dated 2007)

Biological target: T1, hM2 muscarinic receptor subtype (Homo sapiens, UniProt P08172)
T1 construct: expressed in transfected cells; membranes prepared
T1 sequence (P08172 1-466): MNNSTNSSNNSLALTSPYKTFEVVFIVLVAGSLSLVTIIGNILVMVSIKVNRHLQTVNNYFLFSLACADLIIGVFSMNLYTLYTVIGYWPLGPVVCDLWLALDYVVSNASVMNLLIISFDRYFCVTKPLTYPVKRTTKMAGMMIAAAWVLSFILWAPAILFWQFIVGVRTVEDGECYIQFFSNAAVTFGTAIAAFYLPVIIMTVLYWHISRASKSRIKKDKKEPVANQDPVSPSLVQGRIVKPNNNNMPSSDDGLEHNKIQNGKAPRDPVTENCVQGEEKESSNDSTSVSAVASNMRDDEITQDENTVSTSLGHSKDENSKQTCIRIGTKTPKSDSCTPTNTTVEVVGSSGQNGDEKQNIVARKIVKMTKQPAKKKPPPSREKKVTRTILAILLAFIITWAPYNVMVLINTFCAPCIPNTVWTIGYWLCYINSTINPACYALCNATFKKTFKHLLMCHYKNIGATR
Test: Radioligand binding assay ([3H]NMS displacement), hM2
Settings: [3H]NMS at 1 nM; membranes of CHO cells expressing hM2
Description: CHO (Chinese hamster ovary) cell lines stably expressing cloned human hM1, hM2, hM3 and hM4 muscarinic receptor subtypes, respectively, were grown to near confluency in medium consisting of HAM's F-12 supplemented with 10% FBS (Fetal Bovine Serum) and 250 μg/mL Geneticin. The cells were grown in a 5% CO2, 37° C. incubator and lifted with dPBS+2 mM EDTA. Cells were collected by 5 minute centrifugation at 650×g, and cell pellets were either stored frozen at −80° C. or membranes were prepared immediately. For membrane preparation, cell pellets were resuspended in lysis buffer and homogenized with a Polytron PT-2100 tissue disrupter (Kinematica AG; 20 seconds×2 bursts). Crude membranes were centrifuged at 40,000×g for 15 minutes at 4° C. […] Protein concentration of the membrane suspension was determined by the method of Lowry, O. et al., (1951) […]: 193, 265. […]
Radioligand binding assays were performed in 96-well microtiter plates in a total assay volume of 100 μL. […] Filter plates were rinsed three times with wash buffer (10 mM HEPES) to remove unbound radioactivity. […] The plates were then counted in a PerkinElmer Topcount liquid scintillation counter (PerkinElmer Inc., Wellesley, Mass.). Binding data were analyzed by nonlinear regression analysis with the GraphPad Prism Software package (GraphPad Software, Inc., San Diego, Calif.) using the one-site competition model. […]

## COc1ccncc1CN1CCC(N(CCCCCCCN2CC[C@@H](C(C(N)=O)(c3ccccc3)c3ccccc3)C2)C(C)C)CC1 [Example 1]
  Ki: < 1 nM
